Data: article PMC10447463, “Data-mining unveils structure–property–activity correlation of viral infectivity enhancing self-assembling peptides” (Nature Communications, 2023)

Legend:
[1] = tested on: HIV-1 infection of TZM-bl cells; assay: HIV-1 infectivity enhancement assay, β-galactosidase luminescence; format: cell-based
TZM-bl cells = format: cell-based; details: CellTiter-Glo, mean of n = 3 replicates
Method: The cell viability after addition of peptides to TZM–bl cells was studied via the CellTiter–Glo assay. To this end, 10,000 cells were seeded and on the next day serial diluted peptides were added. After 3 days the supernatant was removed and 100 µL CellTiter–Glo Reagent 1:1 diluted in PBS was added. After 10 min 50 µL was transferred to white microplate and luminescence was recorded by Orion microplate luminometer.
2. Cell Viability of Representatively Selected Peptides
Figure S 2 Cell Viability normalized to 100% metabolic activity as determined by CellTiterGlo Assay of 57 representatively selected peptides from the library. The selection represents infectivity enhancing and not […]
concentration. Error bars indicate standard deviation from triplicate measurements. Source data for Figure S2 […]
Figure S3 Cell Viability normalized to 100% metabolic activity determined by CellTiterGlo Assay of 20 peptides reported in literature. 33,34,43–48,35–42 Cell viability (> 80%) is maintained for all peptides at 1.3 µM concentration regardless of the preparation method, which is A PNF formation method by dilution of 10 mg/mL peptide stock in DMSO in PBS to 1 mg/mL or B preparation according to literature reported protocol (SI Section 8). Error bars indicate standard deviation from triplicate measurements. Source data for Figure S3 is provided.

[2] = Zeta-potential measurement; format: physicochemical; details: zeta potential of peptide; Fig S15 source data
Summary of the method: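 Surface charge of aggregated peptides: 1 mg/mL solutions in PBS (pH 7.4) incubated 1 d at RT, diluted into 1 mM KCl just before reading. Electrophoretic mobility converted to zeta potential by the Smoluchowski formula; triplicate measurements from two separate experiments averaged.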

CKIW [TM81]
infectivity ([1]; infectivity class (low / medium / high) of the peptide in the sequence-pattern analysis, Fig. S22-A4, class limits not given): low | Log10 Inf. rel. to EF-C ([1]; log10 of HIV-1 infection of TZM-bl cells relative to EF-C, Fig S15 source data, asymmetric std dev errors): -1.286 | viability 0.26 µM (TZM-bl cells; peptide 0.26 µM): 106.2 | viability 1.3 µM (TZM-bl cells; peptide 1.3 µM): 107.1 | viability 6.5 µM (TZM-bl cells; peptide 6.5 µM): 100.6 | Zeta-pot. / mV [2]: -3.71 mV
